# Data: patent US8729112B2, “Antimicrobial haloalkyl heterocycle compounds” (NovaBay Pharmaceuticals, Inc., priority 2011, dated 2014)
# Tests used:
# Format in all cases: cell-based
# [1] = test system: Staphylococcus aureus (ATCC 29213); experiment: Antimicrobial activity (MBC), S. aureus; settings: saline pH 7, 1 h at room temperature, 1.0×10^5 to 1.0×10^6 CFU/mL
# Procedure: (§1) Antimicrobial activity of certain compounds of the present disclosure was tested against Escherichia coli (ATCC 25922), Staphylococcus aureus (ATCC 29213), and Candida albicans (ATCC 10231). The microbial cultures were diluted in sterile saline pH 7 to prepare inocula. Test compounds were titrated by stepwise two-fold dilutions in sterile saline pH 7. A total of 1.0×10^5 to 1.0×10^6 Colony Forming Units (CFU)/mL microbe was added to each tube, mixed by gentle vortexing, and then incubated at room temperature for 1 h. Microbial plating on Petri dishes (Tryptic Soy agar or Saboraud's Dextrose agar) was performed immediately after the designated exposure after neutralization of the test article dilutions in Dey-Engley Broth. Plates were incubated at 37° C., and the numbers of microbes were counted by direct colony count to quantitate the surviving microbes as CFU/mL. Positive growth controls were made with sterile 0.9% saline. Compounds were dissolved phosphate buffered saline (PBS) at pH 7 (using HCl and/or NaOH as needed). All compounds were tested three times.
# [2] = test system: Escherichia coli (ATCC 25922); experiment: Antimicrobial activity (MBC), E. coli; settings: saline pH 7, 1 h at room temperature, 1.0×10^5 to 1.0×10^6 CFU/mL
# Procedure: as §1
# L929 cells = experiment: Cytotoxicity CT50 in L929 cells
# [3] = test system: Candida albicans (ATCC 10231); experiment: Antimicrobial activity (MFC), C. albicans; settings: saline pH 7, 1 h at room temperature, 1.0×10^5 to 1.0×10^6 CFU/mL
# Procedure: as §1
SMILES,MBC/MFC S. aureus [1] [µg/mL],MBC/MFC E. coli [2] [µg/mL],CT50 L929 cells (L929 cells) [mM],MBC/MFC C. albicans [3] [µg/mL]
"CC1(CCl)COC(=O)N1Cl (stereo not shown) [Compound 36-01, 3-Chloro-4-(chloromethyl)-4-methyloxazolidin-2-one]",0.5,0.5,0.09,>128
"CN1CC(C)(CCl)N(Cl)C1=O (stereo not shown) [Compound 36-02, 3-Chloro-4-(chloromethyl)-1,4-dimethylimidazolidin-2-one]",16,8,0.04,512
"CC1(CCl)CCC(=O)N1Cl (stereo not shown) [Compound 36-03, 1-chloro-5-(chloromethyl)-5-methylpyrrolidin-2-one]",128,2,0.026,>512
"CC1(CBr)COC(=O)N1Cl (stereo not shown) [Compound 36-05, 4-(bromomethyl)-3-chloro-4-methyloxazolidin-2-one]",0.5,1,0.1,64
"O=C1OCC(CCl)(CCl)N1Cl [Compound 36-06, 3-chloro-4,4-bis(chloromethyl)oxazolidin-2-one]",0.5,1,0.4,16
"CC1(CF)COC(=O)N1Cl (stereo not shown) [Compound 36-07, 3-chloro-4-(fluoromethyl)-4-methyl-oxazolidin-2-one]",0.5,0.5,0.142,256
"CC1(CC(F)(F)F)COC(=O)N1Cl (stereo not shown) [Compound 36-08, 3-chloro-4-(2,2,2-trifluoroethyl)-4-methyl-oxazolidin-2-one]",1,4,0.232,128
